Measurements: BindingDB's records for doi:10.1016/j.bmcl.2014.09.005 (Rhône-Poulenc Rorer, 2014)
pIC50: −log10 of the molar value.

assay: Antagonist activity at CRTh2 receptor in human eosinophil assessed as inhibition of PGD2-induced cell shape change

Structure (SMILES)	pIC50
CCN(Cc1cc(C(F)(F)F)ccc1-n1cc(CC(=O)O)c2cccnc21)C(=O)C1CC1	7.70
CCN(Cc1cc(C(F)(F)F)ccc1-c1cc(CC(=O)O)cc2cnn(C)c12)C(=O)C1CC1	7.24
CCN(Cc1cc(C(F)(F)F)ccc1-c1cn(CC(=O)O)c2ccccc12)C(=O)C1CC1	7.20
CCN(Cc1cc(C(F)(F)F)ccc1-c1cc(CC(=O)O)cc2cn(C)nc12)C(=O)C1CC1	7.37
CCN(Cc1cc(C(F)(F)F)ccc1-c1nc(CC(=O)O)c2ccccn12)C(=O)C1CC1	7.03
CCN(Cc1cc(C(F)(F)F)ccc1-c1cn(CC(=O)O)c2cccnc12)C(=O)C1CC1	7.85
CCN(Cc1cc(C(F)(F)F)ccc1-c1cn(CC(=O)O)c2ccncc12)C(=O)C1CC1	8.10
CCN(Cc1cc(C(F)(F)F)ccc1-c1cc(CC(=O)O)ccc1OC)C(=O)C1CC1	7.89
CCN(Cc1cc(C(F)(F)F)ccc1-c1cc(CC(=O)O)c2ccncn12)C(=O)C1CC1	7.72
